Experimental findings from article PMC5507300, “Antibacterial small molecules targeting the conserved TOPRIM domain of DNA gyrase” (PLoS ONE, 2017) are described below.

Holding throughout (format): biochemical
The target of assay [1] is T1, E. coli DNA gyrase GyrB (F513L) (Escherichia coli, UniProt P0AES6, F513L).
T1 construct: His6 tag followed by TEV site (X1: […]) (N, cleaved yes); made in house; host or cells: E. coli BL21(DE3) RIL
As to the kind of experiment: Gel supercoiling assay, reconstituted GyrB (F513L) gyrase. The protocol: (§1) Conditions to measure the supercoiling of a relaxed, closed-circular plasmid substrate and cleavage complex stabilization in agarose gels were adapted from the literature and carried out as described below. Plasmid supercoiling reactions were assembled by combining 0.4 μL compound (in 100% DMSO), 12.5 μL H2O, 4 μL 5Xbuffer, 0.4 μL relaxed pUC19 DNA substrate (0.5 μg), […] dilute DNA gyrase (buffer, substrate, and enzyme from New England Biolabs, Beverly, MA). Alternatively the substrate pHOT-1 (TopoGEN, Buena Vista, CO) was used as noted (the substrate from New England Biolabs has been discontinued). P. aeruginosa DNA gyrase was supplied by Inspiralis, Norwich, UK. […] The gel was illuminated with UV light, photographed, and DNA quantitated with an Alpha Imager and accompanying software (ProteinSimple, San Jose, CA). […]
(§2) The E. coli gyrA and gyrB (wild-type and t1537c (F513L)) genes with a N-terminal His6 tag sequence followed by Tobacco Etch Virus (TEV) cleavage site ([…]) were cloned into pET28(+) vector (EMD Millipore). […] Fractions containing gyrase subunit protein (as monitored by sodium dodecyl sulfate polyacrylamide gel electrophoresis (SDS-PAGE)) were pooled and loaded onto a Q-Sepharose column (GE Healthcare, Princeton, NJ, USA) equilibrated in 20 mM Tris-HCl (pH = 7.9), 25mM NaCl, 10% glycerol, and 2 mM β-mercaptoethanol. […]

A further assay has as its target T2, S. aureus DNA gyrase (Staphylococcus aureus, UniProt P0A0K8).
T2 construct: purchased TopoGEN, Inc
As to the kind of experiment: S. aureus DNA gyrase supercoiling reaction. The settings on record: maximum achievable concentration (200 μM), pHOT-1 supercoiling.

The target of assay [2] is T3, wild-type E. coli DNA gyrase (recombinant GyrA/GyrB) (Escherichia coli, UniProt P0AES6).
T3 construct: made in house; host or cells: E. coli BL21(DE3) RIL
As to the kind of experiment: Gel supercoiling assay, reconstituted wild-type gyrase. As to the method: as §1, §2

T2 sequence (P0A0K8 whole entry): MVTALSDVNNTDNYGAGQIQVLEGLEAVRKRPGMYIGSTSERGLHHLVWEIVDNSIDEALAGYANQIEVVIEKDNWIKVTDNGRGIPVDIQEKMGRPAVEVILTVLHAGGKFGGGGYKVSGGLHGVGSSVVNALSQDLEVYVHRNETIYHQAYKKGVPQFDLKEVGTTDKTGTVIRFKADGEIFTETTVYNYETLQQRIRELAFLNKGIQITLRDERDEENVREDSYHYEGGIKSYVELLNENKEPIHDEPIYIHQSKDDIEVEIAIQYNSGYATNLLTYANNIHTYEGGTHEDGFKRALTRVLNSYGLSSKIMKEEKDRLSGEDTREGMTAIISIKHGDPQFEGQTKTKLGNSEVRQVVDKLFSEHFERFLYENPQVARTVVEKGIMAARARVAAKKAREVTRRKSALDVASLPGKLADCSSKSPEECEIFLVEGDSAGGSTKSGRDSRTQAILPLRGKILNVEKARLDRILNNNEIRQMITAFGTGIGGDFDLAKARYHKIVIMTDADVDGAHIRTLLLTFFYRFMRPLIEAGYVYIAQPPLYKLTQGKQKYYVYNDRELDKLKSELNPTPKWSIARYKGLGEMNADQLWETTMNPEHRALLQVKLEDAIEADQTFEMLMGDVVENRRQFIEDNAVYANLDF
T2 sequence (P20831 whole entry, further chain): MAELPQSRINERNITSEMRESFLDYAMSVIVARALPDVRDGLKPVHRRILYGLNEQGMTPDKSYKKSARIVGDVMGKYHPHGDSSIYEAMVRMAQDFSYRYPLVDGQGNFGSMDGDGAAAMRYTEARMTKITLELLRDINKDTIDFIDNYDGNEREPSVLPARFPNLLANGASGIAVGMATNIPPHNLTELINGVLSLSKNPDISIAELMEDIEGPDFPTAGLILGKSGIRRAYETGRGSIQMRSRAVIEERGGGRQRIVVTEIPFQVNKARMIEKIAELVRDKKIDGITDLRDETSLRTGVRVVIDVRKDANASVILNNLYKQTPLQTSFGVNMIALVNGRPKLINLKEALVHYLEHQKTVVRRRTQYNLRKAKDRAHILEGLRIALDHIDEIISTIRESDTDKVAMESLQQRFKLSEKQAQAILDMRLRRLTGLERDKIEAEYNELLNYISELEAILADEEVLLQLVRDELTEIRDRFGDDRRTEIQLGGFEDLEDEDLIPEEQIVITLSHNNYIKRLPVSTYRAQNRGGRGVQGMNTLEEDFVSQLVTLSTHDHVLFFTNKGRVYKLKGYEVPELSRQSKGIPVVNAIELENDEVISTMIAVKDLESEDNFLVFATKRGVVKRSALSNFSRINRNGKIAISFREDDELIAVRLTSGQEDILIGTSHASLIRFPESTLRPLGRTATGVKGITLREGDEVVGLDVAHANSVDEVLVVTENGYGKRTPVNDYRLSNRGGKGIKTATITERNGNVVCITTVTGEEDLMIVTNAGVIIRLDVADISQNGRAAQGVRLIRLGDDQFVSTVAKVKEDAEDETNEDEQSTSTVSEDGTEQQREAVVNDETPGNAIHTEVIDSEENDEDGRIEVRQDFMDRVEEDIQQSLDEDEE

For orientation: IC50 means the concentration that gives 50% inhibition. `Cn1ncc2cc(-c3nnnn3C3CCN(C(=O)Nc4ccc(Cl)c(Cl)c4)CC3)ccc21` [MRL-1082]: the IC50 in assay [1] is over 200 µM; in assay [2], about 3.5 µM. Moreover, the “activity against S. aureus DNA gyrase” value at S. aureus DNA gyrase is reported as “does not inhibit”.
